In article PMC6627609, “Targeting Quorum Sensing: High-Throughput Screening to Identify Novel LsrK Inhibitors” (International Journal of Molecular Sciences, 2019):
Structures can show the parent of a compound that is named as a salt.

The compounds below were run against LsrK (Salmonella typhimurium, UniProt Q8ZKQ6) (assay: biochemical). Details: not given.
Chain of LsrK (Q8ZKQ6 whole entry): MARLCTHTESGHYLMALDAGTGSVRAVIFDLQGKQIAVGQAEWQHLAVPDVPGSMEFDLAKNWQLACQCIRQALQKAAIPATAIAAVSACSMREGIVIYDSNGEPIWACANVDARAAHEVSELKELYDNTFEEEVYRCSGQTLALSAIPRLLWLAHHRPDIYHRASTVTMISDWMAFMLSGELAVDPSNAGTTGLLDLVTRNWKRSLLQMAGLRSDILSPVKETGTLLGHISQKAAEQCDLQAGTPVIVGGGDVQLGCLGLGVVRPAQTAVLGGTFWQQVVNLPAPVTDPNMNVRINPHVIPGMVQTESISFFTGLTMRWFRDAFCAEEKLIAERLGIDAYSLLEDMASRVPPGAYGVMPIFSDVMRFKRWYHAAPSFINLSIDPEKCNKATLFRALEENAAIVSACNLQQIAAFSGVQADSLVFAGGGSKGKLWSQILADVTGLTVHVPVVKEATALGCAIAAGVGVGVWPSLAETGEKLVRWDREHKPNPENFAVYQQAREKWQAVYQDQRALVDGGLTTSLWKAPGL
Assay type: biochemical, S. typhimurium
With `Oc1cc(O)c2c(c1)O[C@H](c1cc(O)c(O)c(O)c1)[C@H](O)C2` [EPIGALLOCATECHIN] the inhibition at 50 µM was 89%.
`C[C@]12CCC(=O)C=C1C=C[C@@H]1[C@@H]2CC[C@@]2(C)[C@H]1CC[C@@]21CCC(=O)O1` [CANRENONE] was tested, and the inhibition at 50 µM was 1%.
`C=C(CC)C(=O)c1ccc(OCC(=O)O)c(Cl)c1Cl` [ETHACRYNIC ACID] gave an inhibition at 50 µM of 85%.
`C=CC1=C(C(=O)O)N2C(=O)[C@@H](NC(=O)/C(=N\O)c3csc(N)n3)[C@H]2SC1` gave an inhibition at 50 µM of 17%.
`CC[C@H]1OC(=O)[C@H](C)C(=O)[C@H](C)[C@@H](O[C@@H]2O[C@H](C)C[C@H](N(C)C)[C@H]2O)[C@](C)(OC)C[C@@H](C)C(=O)[C@H](C)[C@H]2N(CCCCn3cnc(-c4cccnc4)c3)C(=O)O[C@]12C` [TELITHROMYCIN] showed an inhibition at 50 µM of 7%.
For `OC(CCN1CCCCC1)(c1ccccc1)C1CC2C=CC1C2` (centres unmarked) [BIPERIDEN], the inhibition at 50 µM was 1%.
`c1cncc(C2=NCCC2)c1` [MYOSMINE] was tested, and the inhibition at 50 µM was 2%.
With `COc1ccc(C(=O)N2CCCC2=O)cc1` the inhibition at 50 µM was 0%.
For `CCCCCc1c2c(cc(O)c1C(=O)O)OC(=O)c1c(cc(OC)cc1C(=O)CCCC)O2` [LOBARIC ACID], the inhibition at 50 µM was 98%.
`C[C@H](N)[C@H](O)c1ccc(O)c(O)c1` [LEVONORDEFRIN] showed an inhibition at 50 µM of 123%.
`CN[C@H](CC(C)C)C(=O)N[C@H]1C(=O)N[C@@H](CC(N)=O)C(=O)N[C@H]2C(=O)N[C@H]3C(=O)N[C@H](C(=O)N[C@H](C(=O)O)c4cc(O)cc(O)c4-c4cc3ccc4O)[C@H](O)c3ccc(c(Cl)c3)Oc3cc2cc(c3O[C@@H]2O[C@H](CO)[C@@H](O)[C@H](O)[C@H]2O[C@H]2C[C@](C)(N)[C@H](O)[C@H](C)O2)Oc2ccc(cc2Cl)[C@H]1O` [VANCOMYCIN HYDROCHLORIDE] was tested, and the inhibition at 50 µM was 0%.
`O=c1cc(-c2ccccc2)oc2cc(O)cc(O)c12` [CHRYSIN] showed an inhibition at 50 µM of 3%.
Compound `Cc1ccsc1/C=C/C1=NCCCN1C` [MORANTEL CITRATE] has an inhibition at 50 µM of 0%.
Work on `CC(=O)O[C@H]1C[C@@H](O)C(C)(C)[C@@H]2C[C@@H](OC(C)=O)[C@]3(C)[C@H](CC[C@@]4(C)[C@@H](c5ccoc5)OC(=O)[C@H]5O[C@@]534)[C@@]12C` [3-DEACETYLKHIVORIN] yielded an inhibition at 50 µM of 99%.
For `C=C[C@@]1(C)CC(=O)[C@]2(O)[C@@]3(C)[C@@H](O)CCC(C)(C)[C@@H]3[C@H](O)[C@H](OC(C)=O)[C@@]2(C)O1` [COLFORSIN], the inhibition at 50 µM was 1%.
For `NC[C@H](O)c1ccc(O)c(O)c1` [NOREPINEPHRINE, reference compound], the IC50 was 30 µM and the inhibition at 50 µM was 74%.
Work on `Cc1cc(C(C)(C)C)cc(C)c1CC1=NCCN1` [XYLOMETAZOLINE HYDROCHLORIDE] yielded an inhibition at 50 µM of 1%.
With `CC(=O)O[C@@H]1C[C@H]2C(C)(C)C(=O)C=C[C@]2(C)[C@H]2CC[C@@]3(C)[C@H](c4ccoc4)OC(=O)[C@H]4O[C@]43[C@@]21C` [GEDUNIN] the inhibition at 50 µM was 0%.
`COc1cc(OC)c2c(=O)cc(-c3ccccc3)oc2c1` [CHRYSIN DIMETHYL ETHER] showed an inhibition at 50 µM of 1%.
For `CN(C)CCCN1c2ccccc2Sc2ccccc21` [PROMAZINE HYDROCHLORIDE], the inhibition at 50 µM was 3%.
For `COc1cc(/C=C/C(=O)CC(=O)/C=C/c2ccc(O)c(OC)c2)ccc1O` [CURCUMIN], the inhibition at 50 µM was 1%.

Same assay, conditions: 50 µM
With `O=C(O[C@@H]1Cc2c(O)cc(O)cc2O[C@@H]1c1ccc(O)c(O)c1)c1cc(O)c(O)c(O)c1` [EPICATECHIN MONOGALLATE] the “Inhibition (%)” value was 86.
`CCC(C)C(=O)O[C@@H]1C[C@@]2(C)[C@H](c3ccoc3)OC(=O)CC23OC2(C)OC34[C@H](OC(=O)C(C)C)[C@@]3(O)[C@@H](OC(=O)C5(C)OC5C)[C@@]5(C)C[C@]3(O)[C@@](C)([C@H]5CC(=O)OC)C14O2` (some centres unmarked) [ENTANDROPHRAGMIN] was tested, and the “Inhibition (%)” value was 1.
In the case of `CC(C)c1ccc2c(c1)CCC1[C@](C)(CN)CCC[C@]21C.O=S(=O)(O)O` (some centres unmarked) [18-AMINOABIETA-8.11.13-TRIENE SULFATE], the “Inhibition (%)” value is reported as 1.
With `CC(=O)O[C@H]1C[C@@H](OC(C)=O)C(C)(C)[C@@H]2C[C@@H](OC(C)=O)[C@@]3(C)C4=CC(=O)O[C@@H](c5ccoc5)[C@]4(C)CC[C@@H]3[C@@]12C` [DEOXYKHIVORIN] the “Inhibition (%)” value was 1.
